Assay results from US9233977B2, “Leucine-rich repeat kinase enzyme activity” (Merck Sharp & Dohme Corp., priority 2010, dated 2016).

Biological target: T1, LRRK2 G2019S mutant kinase (Homo sapiens, UniProt Q5S007, G2019S)
T1 construct: GST; purchased Invitrogen PV4882
Assay: LRRK2 G2019S LanthaScreen TR-FRET kinase assay
Type: biochemical
Details: LRRK2 G2019S GST-tagged protein, 75 nM Fluorescein-ERM (LRRKtide), 100 μM ATP, 1 hour at room temperature; read-out: IC50 (potency)
Protocol: The final solvent concentration in the assay was 1% DMSO. […] Generation of raw data and workup of data to derive the IC50 (potency) and maximal inhibition at concentrations tested were performed using Merck's Assay Data Analyzer (ADA) software.
The IC50 (potency) was evaluated for the example compounds presented above.

T1 sequence (Q5S007 whole entry G2019S): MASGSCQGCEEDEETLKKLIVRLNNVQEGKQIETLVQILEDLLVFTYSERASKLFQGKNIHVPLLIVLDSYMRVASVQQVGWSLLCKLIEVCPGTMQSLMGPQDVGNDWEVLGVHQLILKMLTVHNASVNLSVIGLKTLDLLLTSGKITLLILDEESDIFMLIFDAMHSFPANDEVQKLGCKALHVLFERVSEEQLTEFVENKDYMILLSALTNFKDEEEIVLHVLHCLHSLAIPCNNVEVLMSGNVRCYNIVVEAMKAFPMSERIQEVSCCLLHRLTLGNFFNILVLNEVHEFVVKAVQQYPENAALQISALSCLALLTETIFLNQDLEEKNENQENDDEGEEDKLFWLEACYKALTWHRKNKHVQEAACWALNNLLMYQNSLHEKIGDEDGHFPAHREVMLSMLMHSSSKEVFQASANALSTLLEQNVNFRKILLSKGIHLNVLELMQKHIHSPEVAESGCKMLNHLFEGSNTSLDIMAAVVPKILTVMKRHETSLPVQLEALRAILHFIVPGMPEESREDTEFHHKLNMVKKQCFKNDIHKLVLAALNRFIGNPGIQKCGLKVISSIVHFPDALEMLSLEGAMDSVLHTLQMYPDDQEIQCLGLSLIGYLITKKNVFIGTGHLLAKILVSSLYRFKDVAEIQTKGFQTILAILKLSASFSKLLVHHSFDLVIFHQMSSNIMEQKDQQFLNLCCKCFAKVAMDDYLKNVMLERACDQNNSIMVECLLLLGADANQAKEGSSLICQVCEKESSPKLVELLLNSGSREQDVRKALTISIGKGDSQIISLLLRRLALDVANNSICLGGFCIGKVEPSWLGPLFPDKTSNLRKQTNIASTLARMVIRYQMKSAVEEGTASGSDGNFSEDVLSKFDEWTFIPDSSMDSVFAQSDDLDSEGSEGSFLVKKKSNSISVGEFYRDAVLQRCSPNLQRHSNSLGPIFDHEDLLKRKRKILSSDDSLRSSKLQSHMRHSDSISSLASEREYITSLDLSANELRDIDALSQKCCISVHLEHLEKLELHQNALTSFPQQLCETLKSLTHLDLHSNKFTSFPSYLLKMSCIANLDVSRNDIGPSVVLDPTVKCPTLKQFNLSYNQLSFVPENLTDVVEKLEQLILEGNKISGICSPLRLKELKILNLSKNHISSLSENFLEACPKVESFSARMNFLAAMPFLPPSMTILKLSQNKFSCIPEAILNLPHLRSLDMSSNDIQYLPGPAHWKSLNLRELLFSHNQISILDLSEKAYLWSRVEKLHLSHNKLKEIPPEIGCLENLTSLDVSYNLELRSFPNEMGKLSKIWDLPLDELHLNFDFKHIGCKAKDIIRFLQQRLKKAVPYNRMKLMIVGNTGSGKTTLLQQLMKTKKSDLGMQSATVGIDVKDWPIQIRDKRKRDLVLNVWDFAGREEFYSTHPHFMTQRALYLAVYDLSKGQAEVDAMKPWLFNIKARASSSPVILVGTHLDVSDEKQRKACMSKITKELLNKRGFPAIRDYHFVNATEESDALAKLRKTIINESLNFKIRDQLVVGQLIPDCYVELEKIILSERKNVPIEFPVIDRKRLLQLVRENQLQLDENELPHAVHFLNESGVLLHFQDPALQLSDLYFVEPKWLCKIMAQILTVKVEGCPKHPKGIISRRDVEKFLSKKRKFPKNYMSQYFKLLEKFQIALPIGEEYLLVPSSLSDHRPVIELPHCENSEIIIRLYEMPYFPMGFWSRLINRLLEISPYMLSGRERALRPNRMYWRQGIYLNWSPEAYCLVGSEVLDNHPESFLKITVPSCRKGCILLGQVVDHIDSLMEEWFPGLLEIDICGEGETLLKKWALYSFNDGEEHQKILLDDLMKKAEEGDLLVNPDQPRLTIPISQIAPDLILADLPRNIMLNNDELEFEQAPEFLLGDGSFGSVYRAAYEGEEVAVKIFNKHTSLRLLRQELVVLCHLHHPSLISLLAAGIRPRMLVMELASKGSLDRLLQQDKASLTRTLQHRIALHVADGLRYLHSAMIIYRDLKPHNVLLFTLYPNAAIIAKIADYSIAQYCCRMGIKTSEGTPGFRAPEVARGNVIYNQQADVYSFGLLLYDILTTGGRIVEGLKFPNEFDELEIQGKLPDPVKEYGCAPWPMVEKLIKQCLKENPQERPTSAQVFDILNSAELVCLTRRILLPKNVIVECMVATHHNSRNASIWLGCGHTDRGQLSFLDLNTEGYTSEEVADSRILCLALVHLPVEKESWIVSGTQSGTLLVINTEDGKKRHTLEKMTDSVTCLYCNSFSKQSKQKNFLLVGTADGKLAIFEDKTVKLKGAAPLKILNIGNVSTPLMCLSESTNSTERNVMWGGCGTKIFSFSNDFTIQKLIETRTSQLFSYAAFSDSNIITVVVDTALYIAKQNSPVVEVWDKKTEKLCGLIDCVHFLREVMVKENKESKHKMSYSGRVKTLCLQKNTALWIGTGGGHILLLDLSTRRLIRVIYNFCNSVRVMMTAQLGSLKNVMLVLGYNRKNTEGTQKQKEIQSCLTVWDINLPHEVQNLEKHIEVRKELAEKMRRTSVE

Structure (SMILES)	IC50
CSc1sc(-c2cc[nH]n2)c2c1C(=O)N(CC1CCCNC1)CC2 (stereo not shown) [Example 65, 3-(methylsulfanyl)-1-(1H-pyrazol-3-yl)-5-(piperidin-3-ylmethyl)-6,7-dihydrothieno[3,4-c]pyridin-4(5H)-one]	3400 nM
CSc1sc(-c2cc[nH]n2)c2c1C(=O)NC(Cc1ccccc1)C2 (stereo not shown) [Example 2, 6-benzyl-3-(methylsulfanyl)-1-(1H-pyrazol-3-yl)-6,7-dihydrothieno[3,4-c]pyridin-4(5)-one]	260 nM
CSc1sc(-c2cc[nH]n2)c2c1C(=O)NC1(CC1)C2 [Example 7, 3′-(methylsulfanyl)-4′-oxo-1′-(1H-pyrazol-3-yl)-7′H-spiro[cyclopropanc-1,6′-thieno[3,4-1]pyridine]-4′(5′H)-one]	350 nM
CSc1sc(-c2cc[nH]n2)c2c1C(=O)N[C@H](c1cc(F)cc(F)c1)C2 [Example 16, (6S)-3-(methylsulfanyl)-6-(3,5-difluorophenyl)-1-(1H-pyrazol-3-yl)-6,7-dihydrothieno[3,4-c]pyridin-4(5)-one]	240 nM
CSc1sc(-c2cc[nH]n2)c2c1C(=O)N(C(=O)OC(C)(C)C)C1(CCC1)C2 [Example 6, tert-butyl-6-methyl-3′-(methylsulfanyl)-4′-oxo-1′-(1H-pyrazol-3-yl)-7′H-spiro[cyclobutane-1,6′-thieno[3,4-1]pyridine]-5′(4′H)-carboxylate]	3100 nM
NCCSc1sc(-c2cc[nH]n2)c2c1C(=O)NCC2 [Example 40]	4700 nM
CSc1sc(-c2cc[nH]n2)c2c1C(=O)N(Cc1cccnc1)CC2 [Example 61, 5-[(3-pyridinyl)methyl]-3-(methylsulfanyl)-1-(1H-pyrazol-3-yl)-6,7-dihydrothieno[3,4-c]pyridin-4(5)-one]	2100 nM
C[C@H]1Cc2c(-c3cc[nH]n3)sc(SCC(=O)O)c2C(=O)N1 [Example 51, (6S)-6-methyl-1-{[4-oxo-1-(1H-pyrazol-3-yl)-4,5,6,7-tetrahydrothieno[3,4-c]pyridin-3-yl]sulfanyl}acetic acid]	2200 nM
CSc1sc(-c2cc[nH]n2)c2c1C(=O)NC(C1CCC1)C2 (stereo not shown) [Example 14, 6-cyclobutyl-3-(methylsulfanyl)-1-(1H-pyrazol-3-yl)-6,7-dihydrothieno[3,4-c]pyridin-4(5)-one]	190 nM
CSc1sc(-c2cc[nH]n2)c2c1C(=O)NC(CC(C)C)C2 (stereo not shown) [Example 12, 6-(2-methylpropyl)-3-(methylsulfanyl)-1-(1H-pyrazol-3-yl)-6,7-dihydrothieno[3,4-c]pyridin-4(5)-one]	300 nM
CSc1sc(-c2cc[nH]n2)c2c1C(=O)N(Cc1ccccc1)CC2 [Example 77, 5-benzyl-3-(methylsulfanyl)-1-(1H-pyrazol-3-yl)-6,7-dihydrothieno[3,4-c]pyridin-4(5)-one]	1300 nM
CCN(CC)CCSc1sc(-c2cc[nH]n2)c2c1C(=O)NCC2 [Example 39, 3-{[2-{diethylamino)ethyl]sulfanyl}-1-(1H-pyrazol-3-yl)-6,7-dihydrothieno[3,4-c]pyridin-4(5)-one]	5700 nM
CSc1sc(-c2cc[nH]n2)c2c1C(=O)N(CCc1ccccn1)CC2 [Example 78, 3-(methylsulfanyl)-5-[2-(2-pyridyl)ethyl]-1-(1H-pyrazol-3-yl)-6,7-dihydrothieno[3,4-c]pyridin-4(5)-one]	5700 nM

Continued by falling IC50, values first:

IC50	Structure (SMILES)
7900 nM	CSc1sc(-c2cc[nH]n2)c2c1C(=O)N(Cc1ccncc1)CC2 [Example 72, 5-[(4-pyridyl)methyl]-3-(methylsulfanyl)-1-(1H-pyrazol-3-yl)-6,7-dihydrothieno[3,4-c]pyridin-4(5)-one]
4000 nM	CSc1sc(-c2cc[nH]n2)c2c1C(=O)N(c1cccc(F)c1)CC2 [Example 82, 5-(3-fluorophenyl)-3-(methylsulfanyl)-1-(1H-pyrazol-3-yl)-6,7-dihydrothieno[3,4-c]pyridin-4(5)-one]
3700 nM	CSc1sc(-c2cc[nH]n2)c2c1C(=O)N(CC1CCOCC1)CC2 [Example 66, 5-[(4-tetrahydropyranyl)methyl]-3-(methylsulfanyl)-1-(1H-pyrazol-3-yl)-6,7-dihydrothieno[3,4-c]pyridin-4(5)-one]
3200 nM	CSc1sc(-c2cc[nH]n2)c2c1C(=O)N(CCCCOc1ccccc1)CC2 [Example 68, 3-(methylsulfanyl)-5-(4-phenoxybutyl)-1-(1H-pyrazol-3-yl)-6,7-dihydrothieno[3,4-c]pyridin-4(5)-one]
3100 nM	CNc1sc(-c2cc[nH]n2)c2c1C(=O)N[C@H](C)C2 [Example 100, (6R)-3-(methylamino)-6-methyl-1-(1H-pyrazol-3-yl)-6,7-dihydrothieno[3,4-c]pyridin-4(5H)-one]
2500 nM	CSc1sc(-c2cc[nH]n2)c2c1C(=O)N(CCCCC#N)CC2 [Example 70, 5-[3-(methylsulfanyl)-4-oxo-1-(1H-pyrazol-3-yl)-6,7-dihydrothieno[3,4H)-yl]pentanenitrile]
640 nM	O=C1NCCc2c(-c3cc[nH]n3)sc(SCCCO)c21 [Example 38]
550 nM	CNc1sc(-c2cc[nH]n2)c2c1C(=O)NC1(CCC1)C2 [Example 94, 3′-(methylamino)-4′-oxo-1′-(1H-pyrazol-3-yl)-7′H-spiro[cyclobutane-1,6′-thieno[3,4-1]pyridine]-4′(5′H)-one]
260 nM	CSc1sc(-c2cc[nH]n2)c2c1C(=O)NC(C)C2 (stereo not shown) [Example 3, 6-methyl-3-(methylsulfanyl)-1-(1H-pyrazol-3-yl)-6,7-dihydrothieno[3,4-c]pyridin-4(5)-one]
220 nM	CSc1sc(-c2cc[nH]n2)c2c1C(=O)NC1(CCCC1)C2 [Example 8, 3′-(methylsulfanyl)-4′-oxo-1′-(1H-pyrazol-3-yl)-7′H-spiro[cyclopentane-1,6′-thieno[3,4-1]pyridine]-4′(5′H)-one]
160 nM	CSc1sc(-c2cc[nH]n2)c2c1C(=O)NC1(CCC1)C2 [Example 5, 3′-(methylsulfanyl)-4′-oxo-1′-(1H-pyrazol-3-yl)-7′H-spiro[cyclobutane-1,6′-thieno[3,4-1]pyridine]-4′(5′H)-one]
150 nM	CSc1sc(-c2cc[nH]n2)c2c1C(=O)NCC2Cc1ccccc1 (stereo not shown) [Example 25, 7-benzyl-3-(methylsulfanyl)-1-(1H-pyrazol-3-yl)-6,7-dihydrothieno[3,4-c]pyridin-4(5H)-one]
120 nM	CCC(C)CSc1sc(-c2cc[nH]n2)c2c1C(=O)N[C@H](C)C2 (stereo partly shown) [Example 49]
120 nM	O=C1NC2(CCC2)Cc2c(-c3cc[nH]n3)sc(NC3CCCC3)c21 [Example 88, 3′-(cyclopentylamino)-4′-oxo-1′-(1H-pyrazol-3-yl)-7′H-spiro[cyclobutane-1,6′-thieno[3,4-1]pyridine]-4′(5′H)-one]
85 nM	CSc1sc(-c2cc[nH]n2)c2c1C(=O)N[C@H](c1ccc(F)cc1)C2 [Example 18, (6S)-3-(methylsulfanyl)-6-(4-fluorophenyl)-1-(1H-pyrazol-3-yl)-6,7-dihydrothieno[3,4-c]pyridin-4(5)-one]
78 nM	CSc1sc(-c2cc[nH]n2)c2c1C(=O)N[C@H](c1cccc(F)c1)C2 [Example 17, (6S)-3-(methylsulfanyl)-6-(3-fluorophenyl)-1-(1H-pyrazol-3-yl)-6,7-dihydrothieno[3,4-c]pyridin-4(5)-one]
55 nM	CCC(C)CSc1sc(-c2cc[nH]n2)c2c1C(=O)N[C@@H](C)C2 (stereo partly shown) [Example 48]
31 nM	CC1CNC(=O)c2c(SCC3CC3)sc(-c3cc[nH]n3)c21 (stereo in doubt) [Example 29]
